Source: article PMC6112376, “Comprehensive Analyses and Prioritization of Tox21 10K Chemicals Affecting Mitochondrial Function by in-Depth Mechanistic Studies” (Environmental Health Perspectives, 2018)
Read-outs that look alike come from different tables or passages of the source.

Tests used:
HepG2 cells [1] = conditions: HepG2 cells, single number from one experiment; for IC50: read-out: MMP assays IC50 (µM) HepG2
rat primary hepatocytes = experiment: MMP assay in rat primary hepatocytes
HepG2 cells [2] = conditions: cited from earlier work
[3] = tested on: isolated rat liver mitochondria; experiment: Oxygen consumption, Clark-type oxygen electrode; format: biochemical; conditions: for I-ADP, % of control (O2 consumption rate): glutamate/malate driven state 3 respiration; for I-ADP, % of control (O2 consumption rate) / I-sub, % of control (O2 consumption rate) / II-ADP, % of control (O2 consumption rate) / II-sub, % of control (O2 consumption rate): isolated rat liver mitochondria; for I-sub, % of control (O2 consumption rate): glutamate/malate driven state 4 respiration; for II-ADP, % of control (O2 consumption rate): succinate-driven state 3 respiration; for II-sub, % of control (O2 consumption rate): succinate-driven state 4 respiration
HepG2 cells [4] = experiment: cells; conditions: Homo sapiens; for Emax: HepG2, read-out: MMP assays efficacy (%) HepG2
[5] = rat hepatocytes, mean ± SD of three experiments
[6] = read-out: MMP assays IC50 (µM) qHTS-HepG2
[7] = read-out: MMP assays IC50 (µM) Rat Hepatocytes, rat hepatocytes, mean ± SD of three experiments
[8] = read-out: MMP assays IC50 (µM), qHTS-HepG2
[9] = HepG2, read-out: MMP assays IC50 (µM) HepG2

Structure (SMILES) | MMP assays efficacy (%) HepG2 (HepG2 cells [1]) | IC50 (HepG2 cells [1]) | MMP assays IC50 (µM) Rat Hepatocytes (rat primary hepatocytes; [5]) | MMP assays efficacy (%) Rat Hepatocytes (rat primary hepatocytes; [5]) | MMP assays efficacy (%) qHTS-HepG2 (HepG2 cells [2]) | IC50 (HepG2 cells [2]; [6]) | IC50 (rat primary hepatocytes; [7]) | IC50 (HepG2 cells [2]; [8]) | other results
Cc1ccc2oc(CN(Cc3ccccc3)C(=O)Nc3c(F)cc(F)cc3F)c(-c3ccc(Cl)cc3)c2c1 | -66% | 56.2 µM | inactive | inactive | -59±30% | 21 ± 2.43 µM |  |  | 
CCCCCCCCCCCCn1cc[n+](C)c1.F[P-](F)(F)(F)(F)F | -119% | 5.01 µM |  | -111±27% |  |  | 8.81 ± 2.46 µM |  | 
Cc1cc(C(C)(C)C)c(O)c(C)c1Cn1c(=O)n(Cc2c(C)cc(C(C)(C)C)c(O)c2C)c(=O)n(Cc2c(C)cc(C(C)(C)C)c(O)c2C)c1=O | -82% | 44.7 µM |  | -40±24% | -98±4% | 12.2 ± 2.84 µM | 26.8 ± 25.3 µM |  | 
O=C(OCC(COC(=O)c1ccccc1)(COC(=O)c1ccccc1)COC(=O)c1ccccc1)c1ccccc1 | -52% | 7.08 µM | inactive | inactive | -63±21% | 4.32 ± 8.63 µM |  |  | 
CC1C2CC(CC2C2CCCC(O)C2)C1(C)C (stereo not drawn) | -108% | 39.8 µM | inactive | inactive | -98±23% | 31.8 ± 17.5 µM |  |  | 
Cc1cc(Nc2ccc(O)cc2)ccc1N | -101% | 14.1 µM | inactive | inactive | -93±15% | 7.66 ± 0.88 µM |  |  | 
C=CCc1cc(S(=O)(=O)c2ccc(O)c(CC=C)c2)ccc1O | -107% | 15.8 µM |  | -52±23% | -114±19% | 45 ± 17.9 µM | 24.5 ± 19.9 µM |  | 
Cc1cc2c(cc1C(F)(F)F)N(C(=O)Nc1ccc(Oc3cccnc3C)nc1)CC2.Cl | -104% | 2 µM |  | -98±10% | -159±11% | 14.4 ± 5.99 µM | 6.15 ± 3.62 µM |  | 
CCCCCCCCCCCCCC[N+](C)(C)Cc1ccccc1.O.O.[Cl-] | -114% | 13.8 µM | inactive | inactive | -76±17% | 16.4 ± 4.28 µM |  |  | 
CC(C)(c1cc(Br)c(OCCO)c(Br)c1)c1cc(Br)c(OCCO)c(Br)c1 | -99% | 11 µM |  | -88±17% | -97±15% | 6.21 ± 0.42 µM | 32.8 ± 2.67 µM |  | 
CCOc1ccc2[nH]cc(C(=O)NCc3ccccc3)c(=O)c2n1 | -92% | 15.8 µM |  | -80±31% | -88±7% |  | 24 ± 16.6 µM | 14.8 ± 9.66 µM | 
CCCC(c1cc(C(C)(C)C)c(O)cc1C)c1cc(C(C)(C)C)c(O)cc1C | -100% | 7.08 µM |  | -61±15% | -106±11% |  | 21.1 ± 18.2 µM | 5.51 ± 1.58 µM | 
CCCCCCCCCCCCCC[P+](CCCCCC)(CCCCCC)CCCCCC.N#C[N-]C#N | -94% | 0.89 µM |  | -81±9% | -103±9% |  | 31 ± 11.7 µM | 0.39 ± 0.19 µM | 
CCc1cc(SCc2sc(-c3ccc(C(F)(F)F)cc3)nc2CN2CCN(c3ccc(OC)cc3)CC2)ccc1OCC(=O)O | -105% | 31.6 µM |  | -116±28% | -128±5% | 25.3 ± 5.81 µM | 23.1 ± 15.6 µM |  | 
O=C(c1ccccc1)c1cc(Cl)ccc1O | -98% | 39.8 µM |  | -59±21% | -85±12% | 29.1 ± 3.36 µM | 25.4 ± 21.3 µM |  | 
CN[C@H]1CC[C@@H](c2ccc(Cl)c(Cl)c2)c2ccc(S(N)(=O)=O)cc21 | -84% | 10 µM |  | -51±37% | -78±20% | 8.31 ± 1.43 µM | 35.7 ± 5.79 µM |  | 
CC[C@H](NC(=O)c1cc(F)ccc1[N-]S(=O)(=O)c1cccc2cccnc12)c1ccccc1.[Na+] | -98% | 11.2 µM |  | -84±50% | -101±14% |  | 35.9 ± 20.2 µM | 4.42 ± 6.97 µM | 
COC(=O)C1=C(C)NC(C)=C(C(=O)O[C@@H]2CCCN(Cc3ccccc3)C2)[C@@H]1c1cccc([N+](=O)[O-])c1.Cl (racemic) [rac Benidipine hydrochloride] | -89% | 30.8 µM | inactive | inactive | -93±18% |  |  | 15 ± 3.18 µM | 
N=C1NC(=N)c2cc3ccccc3cc21 [1,3-Diiminobenz(f)isoindoline] | -95% | 35.5 µM |  | -68±18% | -82±11% | 11.1 ± 7.81 µM | 26.7 ± 23.6 µM |  | 
CCCCCCCCCCn1cc[n+](C)c1.F[B-](F)(F)F [1-Decyl-3-methylimidazolium tetrafluoroborate] | -104% | 7.08 µM |  | -100±10% | -68±12% | 3.87 µM | 16.8 ± 7.73 µM |  | 
CCCCCCCCCCn1cc[n+](C)c1.O=S(=O)([O-])C(F)(F)F [1-Decyl-3-methylimidazolium trifluoromethanesulfonate] | -99% | 7.08 µM |  | -125±47% | -57±16% | 1.67 ± 2.71 µM | 12.1 ± 3.97 µM |  | 
O=C=Nc1cccc(C(F)(F)F)c1 [1-Isocyanato-3-(trifluoromethyl)benzene] | -108% | 6.31 µM |  | -107±13% | -119±7% | 3.28 ± 1.13 µM | 11.5 ± 3.69 µM |  | 
CCCCCCCC[n+]1ccn(C)c1.F[P-](F)(F)(F)(F)F [1-Methyl-3-octylimidazolium hexafluorophosphate] | -77% | 25.1 µM |  | -86±43% |  |  | 39.8 µM |  | 
NNc1nc(-c2ccc([N+](=O)[O-])cc2)cs1 [2-Hydrazino-4-(4-nitrophenyl) thiazole] |  |  |  |  |  |  |  |  | I-ADP, % of control (O2 consumption rate) ([3]; 20 µM): 103 (50.6) % of control; I-sub, % of control (O2 consumption rate) ([3]; 20 µM): 119 (19.1) % of control; II-ADP, % of control (O2 consumption rate) ([3]; 20 µM): 98 (76.1) % of control; II-sub, % of control (O2 consumption rate) ([3]; 20 µM): 99 (30.4) % of control; I-ADP, % of control (O2 consumption rate) ([3]; 100 µM): 61 (32.3) % of control; I-sub, % of control (O2 consumption rate) ([3]; 100 µM): 159 (21.4) % of control; II-ADP, % of control (O2 consumption rate) ([3]; 100 µM): 114 (77.1) % of control; II-sub, % of control (O2 consumption rate) ([3]; 100 µM): 153 (33.1) % of control; Potential Mechanism ([3]; mitochondrial respiration in isolated rat liver mitochondria, Clark type oxygen electrode, over tested concentrations): Uncoupler + inhibitor
CCCCCCCCCCCCCC[P+](CCCCCC)(CCCCCC)CCCCCC.F[P-](F)(F)(F)(F)F [Trihexyltetradecylphosphonium hexafluorophosphate] | -91% | 1.12 µM | inactive | inactive |  |  |  |  | 
COc1cc(C(=O)NS(=O)(=O)c2ccccc2C)ccc1Cc1cn(C)c2ccc(NC(=O)OC3CCCC3)cc12 [Zafirlukast] |  |  |  | -114±33% | -108±3% |  |  | 10.6 ± 1.22 µM | IC50 (rat primary hepatocytes; Rattus norvegicus, Hepatocyte, read-out: MMP assays IC50 (µM) Rat Hepatocytes): 3.43 ± 1.47 µM; IC50 (HepG2 cells [4]; [9]): 13.8 µM; Emax (HepG2 cells [4]): 105%
O=C(Nc1cccc(C(F)(F)F)c1)c1cc(Br)cc(Br)c1O [fluorosalan] |  |  |  | -74±9% | -104±5% |  |  | 0.24 ± 0.09 µM | IC50 (rat primary hepatocytes; Rattus norvegicus, Hepatocyte, 1 h, read-out: IC50 in rat primary hepatocytes (MMP, tier-one retest)): 0.42 µM; IC50 (HepG2 cells [4]; HepG2, read-out: IC50 in HepG2 cells (MMP, tier-one retest)): 0.19 µM; Emax (HepG2 cells [4]): 100%
ON=C1C=CC(=NO)C=C1 [p-Benzoquinone dioxime] |  |  | inactive | inactive | -71±6% |  |  | 43.3 ± 14.9 µM | IC50 (HepG2 cells [4]; [9]): 25.1 µM; Emax (HepG2 cells [4]): 58%
Oc1ccc(/N=N/c2ccccc2)cc1 [p-Phenylazophenol] |  |  | inactive | inactive | -96±7% |  |  | 4.06 ± 1.23 µM | IC50 (HepG2 cells [4]; [9]): 10 µM; Emax (HepG2 cells [4]): 107%
